Measurements published in patent publication US8952035B2, “Combination of anti-angiogenic substance and anti-tumor platinum complex” (Eisai R&D Management Co., Ltd., priority 2008, dated 2015).

Tests used:
[1] = tested on: Human non-small-cell lung cancer cell line A549; assay: Combination use of E7080 and cisplatin in subcutaneous transplanted models (in vivo) of A549; parameters: species or system nude mouse; conditions: alone
Procedure: Human non-small-cell lung cancer cell line A549 (purchased from Dainippon Sumitomo Pharma Co., Ltd) was cultured in RPMI1640 (containing 10% FBS) in a 5% carbon dioxide gas incubator at 37° C. to about 80% confluence, and then the cells were collected with trypsin-EDTA. A 1×10^8 cells/mL suspension was prepared with a phosphate buffer, which was further added with matrigel matrix (purchased from Becton, Dickinson and Co.) to give a 5×10^7 cells/mL suspension, and each 0.2 mL of the resulting cell suspension was subcutaneously transplanted to a nude mouse at the side of its body. Eleven days after the transplantation, 4-(3-chloro-4-(cyclopropylaminocarbonyl)aminophenoxy)-7-methoxy-6-quinolinecarboxamide (hereinafter, also referred to as “[…]”) was orally administered for 3, 10 or 30 mg/kg, once a day for four weeks, while 10 mg/kg of cisplatin was administered into the tail vein once a day. The major and minor axes of tumors were measured with Digimatic caliper (Mitsutoyo Corporation), and tumor volumes and relative tumor volumes were calculated according to the following formulae: Tumor Volume (TV)=Major axis of tumor(mm)×(Minor axis of tumor)^2(mm^2)/2 Relative Tumor Volume (RTV)=Tumor volume on measurement day/Tumor volume on the first administration day. […] Tables 1, 2 and 3 show anti-tumor effects obtained by the use of […] alone, the use of cisplatin alone and the combination use of […] and cisplatin in subcutaneous transplanted A549 models. The first day of administration was considered Day 1.

[2] = tested on: Human non-small-cell lung cancer cell line A549; assay: Combination use of E7080 and carboplatin in subcutaneous transplanted models (in vivo) of A549; parameters: species or system nude mouse; conditions: alone
Procedure: Human non-small-cell lung cancer cell line A549 (purchased from Dainippon Sumitomo Pharma Co., Ltd) was cultured in RPMI1640 (containing 10% FBS) in a 5% carbon dioxide gas incubator at 37° C. to about 80% confluence, and then the cells were collected with trypsin-EDTA. A 1×10^8 cells/mL suspension was prepared with a phosphate buffer, which was further added with matrigel matrix (purchased from Becton, Dickinson and Co.) to give a 5×10^7 cells/mL suspension, and each 0.2 mL of the resulting cell suspension was subcutaneously transplanted to a nude mouse at the side of its body. Eleven days after the transplantation, 4-(3-chloro-4-(cyclopropylaminocarbonyl)aminophenoxy)-7-methoxy-6-quinolinecarboxamide (E7080) was orally administered for 3 or 10 mg/kg, once a day for four weeks, while 100 mg/kg of carboplatin was administered into the tail vein on the first day. The major and minor axes of tumors were measured with Digimatic caliper (Mitsutoyo Corporation), and tumor volumes and relative tumor volumes were calculated according to the following formulae: Tumor Volume (TV)=Major axis of tumor(mm)×(Minor axis of tumor)^2(mm^2)/2 Relative Tumor Volume (RTV)=Tumor volume on measurement day/Tumor volume on the first administration day.
Tables 4 and 5 show anti-tumor effects obtained by the use of E7080 alone, the use of carboplatin alone and the combination use of E7080 and carboplatin in subcutaneous transplanted A549 models. The first day of administration was considered Day 1.

[3] = E7080 3 mg/kg orally once a day for four weeks
[4] = E7080 10 mg/kg orally once a day for four weeks

With `COc1cc2nccc(Oc3ccc(NC(=O)NC4CC4)c(Cl)c3)c2cc1C(N)=O` [E7080, 4-(3-chloro-4-(cyclopropylaminocarbonyl)aminophenoxy)-7-methoxy-6-quinolinecarboxamide] the “Relative tumor volume on Day 29 Average ± standard deviation” value [1, 3] was 2.24 ± 0.34, the “Relative tumor volume on Day 29 Average ± standard deviation” value [1, 4] was 1.81 ± 0.29 and the “Relative tumor volume on Day 29 Average ± standard deviation” value ([1]; E7080 30 mg/kg orally once a day for four weeks) was 1.20 ± 0.21. The “Relative tumor volume on Day 29 Average ± standard deviation” value [2, 3] was 2.24 ± 0.34 and the “Relative tumor volume on Day 29 Average ± standard deviation” value [2, 4] was 1.81 ± 0.29.

With `N.N.[Cl][Pt][Cl]` [Cisplatin, cisplatin, reference compound] the “Relative tumor volume on Day 29 Average ± standard deviation” value ([1]; Cisplatin 10 mg/kg into the tail vein) was 7.99 ± 0.88.

In the case of `N.N.O=C([O-])C1(C(=O)[O-])CCC1.[Pt+2]` [Carboplatin, carboplatin, reference compound], the “Relative tumor volume on Day 29 Average ± standard deviation” value ([2]; Carboplatin 100 mg/kg into the tail vein on the first day) is reported as 7.87 ± 1.05.
